{
  "source": "paper PMC4577092",
  "about": "“Identification of Small-Molecule Inhibitors of the HuR/RNA Interaction Using a Fluorescence Polarization Screening Assay Followed by NMR Validation” (PLoS ONE, 2015)",
  "data": [
    {"biological_target": "T1, HuR (Homo sapiens, UniProt Q15717)", "T1 construct": "Full length (residue 1–326), RRM1-2 (residue 1–190); inferred from pET14b vector and metal chelation chromatography) (N); made in house; host or cells: E. coli BL21 Rosetta", "T1 sequence (Q15717 whole entry)": "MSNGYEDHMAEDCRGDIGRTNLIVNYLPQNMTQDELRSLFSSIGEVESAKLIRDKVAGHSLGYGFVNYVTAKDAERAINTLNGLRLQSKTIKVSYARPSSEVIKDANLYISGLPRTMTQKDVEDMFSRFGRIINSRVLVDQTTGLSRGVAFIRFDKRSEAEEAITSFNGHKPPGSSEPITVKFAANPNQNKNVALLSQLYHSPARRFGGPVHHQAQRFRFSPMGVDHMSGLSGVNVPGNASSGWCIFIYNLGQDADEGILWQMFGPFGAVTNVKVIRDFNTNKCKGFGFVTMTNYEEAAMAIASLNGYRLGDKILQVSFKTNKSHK", "test": "Fluorescence polarization (FP) competition / dose-response assay of HuR/RNA interaction", "format": "binding", "conditions": "10nM RNA and 50nM HuR, compounds serially diluted from 250uM", "description": "Fluorescence polarization measurements were performed in the 384-well plate format on a Biotek Synergy2 plate reader using 480/20nm excitation and 520/20nm emission filters. The NCI diversity set V library containing 1597 compounds was screened in this study. All samples were dissolved in phosphate buffer (50mM Napi, and 100mM NaCl, 5mM TCEP at pH 7.0). The assay mixture contained 50nM HuR and 10nM RNA to yield FP values approximately 80% of the maximum value observed for fully bound RNA. NCI diversity set V library in 96-well format (10mM stock in DMSO) was transferred to 384-well plate, and then diluted into 50uM in phosphate buffer. 5ul of 50uM compound stock was added to 20 ul assay mixture to yield 10uM final compound concentration.\nWe first characterized the binding of the full-length HuR with 11-mer polyribonucleotide derived from the 3’ UTR of the mRNA of the C-fos oncogene (Fig 1A). The binding curves were obtained by keeping the 5’FAM-RNA at 10 nM and adding increasing amounts of HuR. The apparent dissociation constant for the HuR/RNA binding was estimated to be approximately 20 nM (Fig 1A) using the simplified equation as described. To evaluate the expected effect of the inhibitors on the FP readout of the essay, we measured displacement of the fluorescently labeled RNA by the unlabeled RNA (Fig 1B). In displacement assay, the 10nM of 5’FAM-RNA concentration was mixed with 50nM at which fluorescence polarization value was approximately 80% of the maximal value. Fluorescence polarization was measured as a function of the unlabeled RNA concentration. IC50 was obtained (~40nM) by fitting to the equation specified in the figure legend (Fig 1B)\nSupplementary file pone.0138780.s002.tif: S2 Fig Dose responses of hits on confirmed hits from primary screening. Compounds at 250uM in final concentration in the assay volume of 25uL were added to the mixture of 10nM RNA and 50nM HuR in the first well in 384 format plate followed by a serial dilution into next well where the concentration of RNA and HuR was kept constant. (TIF) Click here for additional data file.\nSupplementary file pone.0138780.s010.doc: S1 Table IC50 for confirmed hits from primary HTS screening. IC50s were obtained by fitting to the equation of ΔP = ΔPmax/(1+10^((Logx0-X)*p)). (DOC) Click here for additional data file.", "units": {"IC50": "µM"}, "values": [
      {"molecule": "COc1cccc2c1C(=O)c1c(O)c3c(c(O)c1C2=O)CC(O)(/C(C)=N/O)CC3OC1CC(N)C(O)C(C)O1", "note": "(stereo not drawn) [C10]", "IC50": 21.7},
      {"molecule": "CC#CC#Cc1cccc(=O)o1", "note": "[C8]", "IC50": 44.4},
      {"molecule": "CSc1nc(N)c(N=Nc2ccc([As](=O)(O)O)cc2)c(=O)[nH]1", "note": "[C6]", "IC50": 2.7},
      {"molecule": "CO[C@@H]1[C@@H](OC(=O)c2ccc(C)[nH]2)[C@@H](O)[C@H](Oc2ccc3c(O)c(NC(=O)c4ccc(O)c(CC=C(C)C)c4)c(=O)oc3c2Cl)OC1(C)C", "note": "[C11]", "IC50": 41.9},
      {"molecule": "COCC(=O)OC1CCn2c1nc1c2C(=O)C(C)=C(NC(C)=O)C1=O", "note": "(stereo not drawn) [C12]", "IC50": 17.4},
      {"molecule": "Cc1ccc(Nc2ccc(N)cc2S(=O)(=O)O)cc1", "note": "[C2]", "IC50": 41},
      {"molecule": "O=C(Nc1cccc([N+](=O)[O-])c1)c1ccc2ccccc2c1O", "note": "[C4]", "IC50": 97.4},
      {"molecule": "O=C(O)C1=NN(c2cc(Cl)c(S(=O)(=O)O)cc2Cl)C(=O)C1", "note": "[C5]", "IC50": 16.7},
      {"molecule": "O=C(O)c1cc(N2C(=O)C=CC2=O)cc(N2C(=O)C=CC2=O)c1", "note": "[C3]", "IC50": 26.9},
      {"molecule": "COC(=O)CC1OCC=C2CN3CCC45C6=CC(=O)C(=O)C([N+](=O)[O-])=C6NC4C1C2CC35", "note": "(stereo not drawn) [C9]", "IC50": 69.6},
      {"molecule": "CCOC(=O)C(=O)Cc1cccnn1", "note": "[C7]", "IC50": 4.6}
    ]},
    {"biological_target": "T2, HuR full length (UniProt Q15717 1-326)", "T2 sequence (Q15717 whole entry)": "as above", "test": "fluorescence polarization; 10 nM RNA; apparent Kd; FP: 50 mM Na phosphate, 100 mM NaCl, 5 mM TCEP, pH 7.0, 384-well plate; temperature not stated; NMR conditions not in material", "conditions": "protein: recombinant; (pET14b, metal chelation); label: 5'-FAM; single strand", "units": {"Kd": "µM"}, "values": [
      {"molecule": "AUUUUUAUUUU (ssRNA)", "note": "[5'-FAM c-Fos 11-mer ARE RNA]", "Kd": "~0.02"}
    ]},
    {"biological_target": "T3, Full length HuR (Homo sapiens, UniProt Q15717)", "T3 construct": "Full length (residue 1–326), RRM1-2 (residue 1–190); inferred from pET14b vector and metal chelation chromatography) (N); made in house; host or cells: E. coli BL21 Rosetta", "T3 sequence (Q15717 whole entry)": "as above", "test": "Sedimentation velocity analytical ultracentrifugation (AUC) of HuR dimer/oligomer", "format": "biochemical", "conditions": "10uM HuR and 20uM compounds", "description": "Sedimentation velocity analytical ultracentrifugation was performed on a Beckman XLA analytical ultracentrifuge using an AN50 Ti rotor with standard Epon 2-channel centerpieces. The samples were spun at 25000rpm for~12hrs at 20 C. 25 scans measuring absorbance at 280nm were collected. The data were analyzed using Ultrascan III software.\nSupplementary file pone.0138780.s005.tif: S5 Fig Post-hit validation using analytical ultracentrifugation (AUC). Sedimentation velocity studies are informative of the overall shape of molecule. […] We tested 4 compounds from secondary screening. 30% and 50% fraction of boundary were in orange. […] (TIF) Click here for additional data file.", "values": [
      {"molecule": "CC#CC#Cc1cccc(=O)o1", "note": "[C8]", "effect on formation of HuR dimer/oligomer (shift of boundary toward monomer)": "did not"},
      {"molecule": "Cc1ccc(Nc2ccc(N)cc2S(=O)(=O)O)cc1", "note": "[C2]", "effect on formation of HuR dimer/oligomer (shift of boundary toward monomer)": "did not"}
    ]},
    {"biological_target": "T2, HuR full length", "test": "competition (fluorescence polarization); displacement of 10 nM 5'-FAM RNA (N1) from 50 nM HuR; FP: 50 mM Na phosphate, 100 mM NaCl, 5 mM TCEP, pH 7.0, 384-well plate; temperature not stated; NMR conditions not in material", "conditions": "protein: recombinant; (pET14b, metal chelation); single strand", "units": {"IC50": "µM"}, "values": [
      {"molecule": "AUUUUUAUUUU (ssRNA)", "note": "[unlabeled c-Fos 11-mer ARE RNA]", "IC50": "~0.04"}
    ]}
  ]
}
